Inconclusive results and toxic doses are left out. Cut-off read from the data, not from the text of the source: active = T/C of 150% or more; inactive = T/C below 125%.
Test system: L1210 leukemia ip in BDF1 mice, survival T/C
Assay: NCI In Vivo Anticancer Drug Screen. Data for tumor model L1210 Leukemia (intraperitoneal) in B6D2F1 (BDF1) mice
Details: endpoint: mean survival time, higher = longer survival
Outline: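 Mice bearing the transplanted tumor received compound or vehicle. Survival of the treated group was divided by that of the vehicle-treated control group to give the ratio.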

[1] = dose: 25.0 mg/kg/injection, schedule: Q01DX009 (ip), vehicle: acetone
[2] = dose: 50.0 mg/kg/injection, schedule: Q01DX009 (ip), vehicle: acetone
[3] = dose: 100.0 mg/kg/injection, schedule: Q01DX009 (ip), vehicle: acetone
[4] = dose: 100.0 mg/kg/injection, schedule: Q01DX009 (ip), vehicle: saline
[5] = dose: 200.0 mg/kg/injection, schedule: Q01DX009 (ip), vehicle: saline
[6] = dose: 100.0 mg/kg/injection, schedule: Q01DX009 (ip), vehicle: saline with Tween-80
[7] = dose: 200.0 mg/kg/injection, schedule: Q01DX009 (ip), vehicle: saline with Tween-80
[8] = dose: 100.0 mg/kg/injection, schedule: Q04DX003 (ip), vehicle: saline with Tween-80
[9] = dose: 200.0 mg/kg/injection, schedule: Q04DX003 (ip), vehicle: saline with Tween-80
[10] = dose: 400.0 mg/kg/injection, schedule: Q04DX003 (ip), vehicle: saline with Tween-80
[11] = dose: 100.0 mg/kg/injection, schedule: Q04DX002 (ip), vehicle: saline with Tween-80
[12] = dose: 200.0 mg/kg/injection, schedule: Q04DX002 (ip), vehicle: saline with Tween-80
[13] = dose: 400.0 mg/kg/injection, schedule: Q04DX002 (ip), vehicle: saline with Tween-80
[14] = dose: 100.0 mg/kg/injection, schedule: Q04DX003 (ip), vehicle: saline
[15] = dose: 200.0 mg/kg/injection, schedule: Q04DX003 (ip), vehicle: saline
[16] = dose: 400.0 mg/kg/injection, schedule: Q01DX009 (ip), vehicle: saline
[17] = dose: 400.0 mg/kg/injection, schedule: Q04DX003 (ip), vehicle: saline
[18] = dose: 100.0 mg/kg/injection, schedule: Q01DX009 (ip), vehicle: Klucel (hydroxypropylcellulose) (HPC)
[19] = dose: 100.0 mg/kg/injection, schedule: Q04DX003 (ip), vehicle: Klucel (hydroxypropylcellulose) (HPC)
[20] = dose: 200.0 mg/kg/injection, schedule: Q01DX009 (ip), vehicle: Klucel (hydroxypropylcellulose) (HPC)
[21] = dose: 200.0 mg/kg/injection, schedule: Q04DX003 (ip), vehicle: Klucel (hydroxypropylcellulose) (HPC)
[22] = dose: 400.0 mg/kg/injection, schedule: Q01DX009 (ip), vehicle: Klucel (hydroxypropylcellulose) (HPC)
[23] = dose: 400.0 mg/kg/injection, schedule: Q04DX003 (ip), vehicle: Klucel (hydroxypropylcellulose) (HPC)
[24] = dose: 100.0 mg/kg/injection, schedule: Q01DX001 (ip), vehicle: Klucel (hydroxypropylcellulose) (HPC)
[25] = dose: 200.0 mg/kg/injection, schedule: Q01DX001 (ip), vehicle: Klucel (hydroxypropylcellulose) (HPC)
[26] = dose: 400.0 mg/kg/injection, schedule: Q01DX001 (ip), vehicle: Klucel (hydroxypropylcellulose) (HPC)

Measured: T/C

CC(C)(C)N1CCOCC1
inactive: [1] 91 % of control | [2] 92 % of control | [3] 87 % of control

Cc1ccc(Br)c(Br)c1
inactive: dose: 50.0 mg/kg/injection, schedule: Q01DX009 (ip), vehicle: saline 97 % of control | [4] 87 % of control | [5] 111 % of control

N#CC(CC(=O)c1ccc(Cl)cc1)c1ccccc1 (stereo unspecified)
inactive: [6] 91 % of control | [7] 96 % of control | dose: 400.0 mg/kg/injection, schedule: Q01DX009 (ip), vehicle: saline with Tween-80 91 % of control

O=C1C=CC(=O)N1CO (tested in a mixture with another compound)
inactive: [8] 97 % of control | [9] 92 % of control | [10] 91 % of control

O=C(Nc1cc(C(F)(F)F)ccc1Cl)c1ccccc1F
inactive: [11] 102 % of control | [12] 102 % of control | [13] 108 % of control

O=C(CBr)CC(O)(C(F)(F)F)C(F)(F)F
inactive: dose: 3.0 mg/kg/injection, schedule: Q01DX009 (ip), vehicle: saline 93 % of control | dose: 6.0 mg/kg/injection, schedule: Q01DX009 (ip), vehicle: saline 103 % of control | dose: 12.0 mg/kg/injection, schedule: Q01DX009 (ip), vehicle: saline 103 % of control

BrC12CCC(CC1)C1CCC2CC1
inactive: [4] 90 % of control | [14] 96 % of control | [5] 87 % of control | [15] 97 % of control | [16] 88 % of control | [17] 98 % of control

COC(=O)C1=CC(C(=O)OC)C(C(=O)OC)N2C=CSC2(C)C1 (stereo unspecified)
inactive: [8] 96 % of control | [9] 96 % of control | [10] 93 % of control

Cc1ccc([N+](=O)[O-])cc1NC(=O)COc1ccc(Cl)cc1Cl
inactive: [18] 96 % of control | [19] 95 % of control | [20] 91 % of control | [21] 102 % of control | [22] 94 % of control | [23] 91 % of control

O=C(c1ccc(Br)cc1)C(O)O
inactive: [4] 102 % of control | [14] 121 % of control | [5] 97 % of control | [15] 101 % of control | [16] 102 % of control | [17] 106 % of control

CC(C)(C)CC(C)(C)c1ccc(OCCOc2ccc(C(N)=O)cc2[N+](=O)[O-])cc1
inactive: [14] 94 % of control | [15] 105 % of control | [17] 97 % of control

Nc1cccc(C(=O)CC(=O)Nc2nccs2)c1
inactive: dose: 50.0 mg/kg/injection, schedule: Q04DX003 (ip), vehicle: Klucel (hydroxypropylcellulose) (HPC) 90 % of control | [24] 98 % of control | [19] 95 % of control | [25] 103 % of control | [21] 90 % of control | [26] 98 % of control

CCC1C(=O)CC(C(=O)O)C1C(=O)O (stereo unspecified)
inactive: [11] 100 % of control | [12] 96 % of control

CC1CC(C)(C)N=C(CCC2CCCC23OCCO3)O1 (stereo unspecified)
inactive: dose: 100.0 mg/kg/injection, schedule: Q01DX009 (ip), vehicle: saline sonified 98 % of control | dose: 100.0 mg/kg/injection, schedule: Q04DX003 (ip), vehicle: saline sonified 101 % of control | dose: 200.0 mg/kg/injection, schedule: Q01DX009 (ip), vehicle: saline sonified 98 % of control | dose: 200.0 mg/kg/injection, schedule: Q04DX003 (ip), vehicle: saline sonified 101 % of control | dose: 400.0 mg/kg/injection, schedule: Q01DX009 (ip), vehicle: saline sonified 94 % of control | dose: 400.0 mg/kg/injection, schedule: Q04DX003 (ip), vehicle: saline sonified 101 % of control

Oc1ccc(-c2ccccc2)cc1Br
inactive: [8] 101 % of control | [9] 111 % of control

CC(C)CNS(=O)(=O)c1ccc(Cl)c([N+](=O)[O-])c1
inactive: [19] 99 % of control | [21] 97 % of control | [23] 106 % of control

O=c1[nH]cc(Br)c2sccc12
inactive: [8] 100 % of control | [9] 105 % of control

N#Cc1ccc(Cl)cc1
inactive: dose: 100.0 mg/kg/injection, schedule: Q04DX002 (ip), vehicle: Klucel (hydroxypropylcellulose) (HPC) 100 % of control | dose: 200.0 mg/kg/injection, schedule: Q04DX002 (ip), vehicle: Klucel (hydroxypropylcellulose) (HPC) 102 % of control

C#CCCCCC#CCCCCCl
inactive: [1] 104 % of control | [2] 95 % of control | [3] 87 % of control | dose: 100.0 mg/kg/injection, schedule: Q04DX003 (ip), vehicle: acetone 90 % of control | dose: 200.0 mg/kg/injection, schedule: Q04DX003 (ip), vehicle: acetone 93 % of control

CCOC(CCc1c(-c2ccccc2)nc(N)[nH]c1=O)OCC
inactive: dose: 100.0 mg/kg/injection, schedule: Q01DX009 (ip), vehicle: other 110 % of control | dose: 200.0 mg/kg/injection, schedule: Q01DX009 (ip), vehicle: other 102 % of control | dose: 400.0 mg/kg/injection, schedule: Q01DX009 (ip), vehicle: other 93 % of control

O=C(COc1ccc(Cl)c(Cl)c1)Nc1ccc[n+](Cc2ccc(Cl)c(Cl)c2)c1
inactive: [19] 90 % of control | [21] 97 % of control | [23] 104 % of control

CCCCCCCCN1C(=O)C2C(C1=O)C1(Cl)C(Cl)=C(Cl)C2(Cl)C1(Cl)Cl (stereo unspecified)
inactive: [4] 95 % of control | [5] 97 % of control | [16] 93 % of control

O=c1oc2cccc(O)c2c2c1CCCC2
inactive: [18] 95 % of control | [19] 97 % of control | [20] 90 % of control | [21] 95 % of control | [22] 90 % of control | [23] 93 % of control

CN(C)C(=O)Sc1c(Cl)cc(S(=O)(=O)F)cc1Cl
inactive: [20] 105 % of control

Cc1ccc(SP(=S)(Sc2ccc(C)cc2)Sc2ccc(C)cc2)cc1
inactive: [18] 97 % of control | [20] 97 % of control | [22] 94 % of control

Cc1cc(NS(=O)(=O)c2ccc(N=Nc3c(N)[nH]c(=O)[nH]c3=O)cc2)nc(C)n1
inactive: dose: 100.0 mg/kg/injection, schedule: Q01DX001 (ip), vehicle: saline 115 % of control | dose: 200.0 mg/kg/injection, schedule: Q01DX001 (ip), vehicle: saline 96 % of control | dose: 400.0 mg/kg/injection, schedule: Q01DX001 (ip), vehicle: saline 93 % of control

CN(C)c1ccc(/C=[N+](\[O-])c2cccc(Cl)c2)cc1
inactive: [24] 95 % of control | [19] 102 % of control | [25] 97 % of control | [21] 100 % of control | [23] 107 % of control

CCCCCCP(=O)(CCCCCC)C1CCCCC1
inactive: dose: 25.0 mg/kg/injection, schedule: Q01DX001 (ip), vehicle: Klucel (hydroxypropylcellulose) (HPC) 94 % of control | dose: 50.0 mg/kg/injection, schedule: Q01DX001 (ip), vehicle: Klucel (hydroxypropylcellulose) (HPC) 88 % of control | [24] 102 % of control | dose: 200.0 mg/kg/injection, schedule: Q01DX001 (ip), vehicle: saline with Tween-80 97 % of control

O=C(O)c1ccccc1C(=O)c1ccccc1
inactive: [24] 97 % of control | [25] 97 % of control | [26] 95 % of control

NCCc1ccc(F)cc1
inactive: [4] 109 % of control | [5] 97 % of control

OC12CC(C(F)(F)F)(C(F)(F)F)OC1(O)CC(C(F)(F)F)(C(F)(F)F)O2 (stereo unspecified)
inactive: [8] 94 % of control | [9] 89 % of control

NC(=O)C1C(=O)c2cccc3c2C1CCCC3 (stereo unspecified)
inactive: dose: 100.0 mg/kg/injection, schedule: Q01DX001 (ip), vehicle: carboxymethylcellulose (CMC) 90 % of control | dose: 200.0 mg/kg/injection, schedule: Q01DX001 (ip), vehicle: carboxymethylcellulose (CMC) 95 % of control | dose: 400.0 mg/kg/injection, schedule: Q01DX001 (ip), vehicle: carboxymethylcellulose (CMC) 92 % of control

O=C(O)COc1ccc(C2(c3ccc(OCC(=O)O)cc3)CC3CC2C2CCCC32)cc1 (stereo unspecified) (tested in a mixture with another compound)
inactive: [11] 93 % of control | [12] 93 % of control | [13] 106 % of control

C=CCCCCC/C=C/CCCCCC
inactive: [6] 89 % of control | [7] 92 % of control

Source: PubChem BioAssay AID248 (DTP/NCI, 2004)
